Test results from ChEMBL document CHEMBL1133764, “Synthesis and cytokine modulation properties of pyrrolo[2, 3-d]-4-pyrimidone nucleosides” (2000).

Assays:
T-cell line [1] = test: Effect (10 uM) on PMA/ION-stimulated T-cell expression of the type 2 cytokine IL-4, which was determined in cell free supernatants by ELISA; type: functional, cell-based; conditions: Homo sapiens
T-cell line [2] = test: Effect (10 uM) on PMA/ION-stimulated T-cell expression of the type 1 cytokine IFN gamma, which was determined in cell free supernatants by ELISA; type: functional, cell-based; conditions: Homo sapiens
T-cell line [3] = test: Effect (10 uM) on PMA/ION-stimulated T-cell expression of the type 1 cytokine,IL-2 was determined in cell free supernatants by ELISA; type: functional, cell-based; conditions: Homo sapiens
T-cell line [4] = test: (§1) Effect (10 uM) on PMA/ION-stimulated T-cell expression of the type 1 cytokine, IFNgamma was determined in cell free supernatants by ELISA; type: functional, Homo sapiens
T-cell line [5] = test: Effect at 10 uM on PMA/ION-stimulated T-cell expression of the type 2 cytokine IL-4, determined in cell free supernatants by ELISA; type: functional, cell-based; conditions: Homo sapiens
T-cell line [6] = test: Effect (10 uM) on PMA/ION-stimulated T-cell expression of the type 1 cytokine, IL-5 was determined in cell free supernatants by ELISA; type: functional, cell-based; conditions: Homo sapiens
T-cell line [7] = test: Effect (10 uM) on PMA/ION-stimulated T-cell expression of the type 1 cytokine,TNF-alpha was determined in cell free supernatants by ELISA; type: functional, cell-based; conditions: Homo sapiens
T-cell line [8] = test: Effect at 10 uM on PMA/ION-stimulated T-cell expression of the type 1 cytokine IFNgamma, determined in cell free supernatants by ELISA; type: functional, cell-based; conditions: Homo sapiens
T-cell line [9] = test: as §1; type: functional, cell-based; conditions: Homo sapiens
T-cell line [10] = test: Effect on PMA/ION-stimulated T-cell expression of the type 1 cytokine, IFNgamma was determined in cell free supernatants by ELISA; type: functional, cell-based; conditions: Homo sapiens
T-cell line [11] = test: Effect on PMA/ION-stimulated T-cell expression of the type 1 cytokine,TNF-alpha was determined in cell free supernatants by ELISA; type: functional, cell-based; conditions: Homo sapiens
T-cell line [12] = test: Effect on PMA/ION-stimulated T-cell expression of the type 1 cytokine,IL-2 was determined in cell free supernatants by ELISA; type: functional, cell-based; conditions: Homo sapiens
T-cell line [13] = test: Effect on PMA/ION-stimulated T-cell expression of the type 1 cytokine,IL-5 was determined in cell free supernatants by ELISA; type: functional, cell-based; conditions: Homo sapiens
T-cell line [14] = test: Effect (10 uM) on PMA/ION-stimulated T-cell expression of the type 1 cytokine IL-2, which was determined in cell free supernatants by ELISA; type: functional, cell-based; conditions: Homo sapiens
T-cell line [15] = test: Effect (10 uM) on PMA/ION-stimulated T-cell expression of the type 1 cytokine TNF-alpha, which was determined in cell free supernatants by ELISA; type: functional, cell-based; conditions: Homo sapiens
T-cell line [16] = test: Effect (10 uM) on PMA/ION-stimulated T-cell expression of the type 2 cytokine IL-5, which was determined in cell free supernatants by ELISA; type: functional, cell-based; conditions: Homo sapiens
T-cell line [17] = test: Effect (10 uM) on PMA/ION-stimulated T-cell expression of the type 1 cytokine IFNgamma, which was determined in cell free supernatants by ELISA; type: functional, cell-based; conditions: Homo sapiens
T-cell line [18] = test: Effect (10 uM) on PMA/ION-stimulated T-cell expression of the type 2 cytokine, IL-4 was determined in cell free supernatants by ELISA; type: functional, cell-based; conditions: Homo sapiens

N/C(=N\O)c1cn([C@@H]2O[C@H](CO)[C@@H](O)[C@@H]2O)c2nc[nH]c(=O)c12
Concentration (T-cell line [1]): 132 pg/mL
Concentration (T-cell line [2]): 10400 pg/mL

N=C(N)c1cn([C@@H]2O[C@H](CO)[C@@H](O)[C@H]2O)c2nc[nH]c(=O)c12
Concentration (T-cell line [3]): < 12700 pg/mL
IFN gamma concentration (T-cell line [4]): <5919 pg/mL
Concentration (T-cell line [5]): < 557 pg/mL
Concentration (T-cell line [6]): < 127 pg/mL
Concentration (T-cell line [7]): < 968 pg/mL

N=C(N)c1cn(C2CCC(CO)O2)c2ncnc(O)c12 (single isomer, unassigned; (+))
Concentration (T-cell line [1]): 234 pg/mL
Concentration (T-cell line [2]): 13300 pg/mL

N/C(=N\O)c1cn([C@H]2O[C@@H](CO)[C@H](O)[C@@H]2O)c2nc[nH]c(=O)c12
Concentration (T-cell line [1]): 142 pg/mL
Concentration (T-cell line [2]): 9660 pg/mL

C[C@H](O)[C@H]1OC(n2cc(C(=N)N)c3c(O)ncnc32)[C@H](O)[C@@H]1O (single isomer, unassigned; (+))
Concentration (T-cell line [5]): 146 pg/mL
Concentration (T-cell line [8]): 10700 pg/mL

C[C@@H](O)[C@H]1OC(n2cc(C(=N)N)c3c(O)ncnc32)[C@H](O)[C@@H]1O (single isomer, unassigned; (+))
Concentration (T-cell line [5]): 159 pg/mL
Concentration (T-cell line [8]): 12100 pg/mL

N=C(NN)c1cn([C@@H]2O[C@H](CO)[C@@H](O)[C@@H]2O)c2nc[nH]c(=O)c12
Concentration (T-cell line [5]): 117 pg/mL
Concentration (T-cell line [8]): 9860 pg/mL

NC(=O)c1cn(C2O[C@H](CO)[C@@H](O)[C@H]2O)c2ncnc(O)c12 (single isomer, unassigned; (+))
Concentration (T-cell line [3]): 24400 pg/mL
Concentration (T-cell line [5]): 183 pg/mL
Concentration (T-cell line [6]): 67 pg/mL
Concentration (T-cell line [9]): 9140 pg/mL
Concentration (T-cell line [7]): 2170 pg/mL

N/C(=N\O)c1cn(C2CCC(CO)O2)c2ncnc(O)c12 (single isomer, unassigned; (+))
Concentration (T-cell line [1]): 152 pg/mL
Concentration (T-cell line [2]): 11200 pg/mL

N#CC1=CN([C@H]2C[C@H](O)[C@@H](CO)O2)C2=NC=NC(=O)C12 (single isomer, unassigned; (+))
Concentration (T-cell line [5]): 194 pg/mL
Concentration (T-cell line [8]): 11900 pg/mL

C[C@H]1OC(n2cc(C(=N)N)c3c(O)ncnc32)[C@H](O)[C@@H]1O (single isomer, unassigned; (+))
Concentration (T-cell line [5]): 152 pg/mL
Concentration (T-cell line [8]): 1310 pg/mL

N=C(NN)c1cn([C@@H]2O[C@H](CO)[C@@H](O)[C@H]2O)c2nc[nH]c(=O)c12
Concentration (T-cell line [5]): 207 pg/mL
Concentration (T-cell line [8]): 11900 pg/mL

NCc1cn([C@@H]2O[C@H](CO)[C@@H](O)[C@@H]2O)c2nc[nH]c(=O)c12
Concentration (T-cell line [5]): 142 pg/mL
Concentration (T-cell line [8]): 10800 pg/mL

C[C@]1(CO)OC(n2cc(C#N)c3c(O)ncnc32)[C@H](O)[C@@H]1O (single isomer, unassigned; (+))
Concentration (T-cell line [5]): 147 pg/mL
Concentration (T-cell line [8]): 9030 pg/mL

C[C@]1(CO)OC(n2cc(C(=N)N)c3c(O)ncnc32)[C@H](O)[C@@H]1O (single isomer, unassigned; (+))
Concentration (T-cell line [1]): 144 pg/mL
Concentration (T-cell line [2]): 9550 pg/mL

C[C@H]1OC(n2cc(C#N)c3c(O)ncnc32)[C@H](O)[C@@H]1O (single isomer, unassigned; (+))
Concentration (T-cell line [5]): 147 pg/mL
Concentration (T-cell line [8]): 9140 pg/mL

NC(=S)c1cn(C2O[C@H](CO)[C@@H](O)[C@H]2O)c2ncnc(O)c12 (stereo not given in full)
Concentration (T-cell line [10]): 7480 pg/mL
Concentration (T-cell line [5]): 176 pg/mL
Concentration (T-cell line [11]): 2220 pg/mL
Concentration (T-cell line [12]): 23000 pg/mL
Concentration (T-cell line [13]): 59 pg/mL

N/C(=N\O)c1cn([C@@H]2O[C@H](CO)[C@@H](O)[C@H]2O)c2nc[nH]c(=O)c12
Concentration (T-cell line [1]): 236 pg/mL
Concentration (T-cell line [14]): 18000 pg/mL
Concentration (T-cell line [15]): 1590 pg/mL
Concentration (T-cell line [16]): 73 pg/mL
Concentration (T-cell line [17]): 7270 pg/mL

N=C(N)c1cn([C@@H]2O[C@H](CO)[C@@H](O)[C@@H]2O)c2nc[nH]c(=O)c12
Concentration (T-cell line [5]): 131 pg/mL
Concentration (T-cell line [8]): 7790 pg/mL

CCCCCCCCCCCCC(=O)O[C@@H]1[C@@H](C)[C@@]2(O)[C@@H](C=C(CO)C[C@]3(O)C(=O)C(C)=C[C@@H]23)[C@@H]2C(C)(C)[C@]12OC(C)=O.C[C@H](CCC(=O)O)C[C@H](C)C[C@H](C)/C(O)=C/C(=O)[C@H](C)C[C@H](C)C/C=C/[C@@H](C)[C@@H](O)[C@@H](C)[C@@H](O)C[C@@H]1CC[C@@](C)([C@H]2CC[C@@](C)([C@@H](C)O)O2)O1
Concentration (T-cell line [10]): 10400 pg/mL
Concentration (T-cell line [18]): 162 pg/mL
Concentration (T-cell line [11]): 2150 pg/mL
Concentration (T-cell line [12]): 27700 pg/mL
Concentration (T-cell line [13]): 93 pg/mL
Concentration (T-cell line [8]): 10400 pg/mL

N=C(N)C1=CN([C@H]2C[C@H](O)[C@@H](CO)O2)C2=NC=NC(=O)C12 (single isomer, unassigned; (+))
Concentration (T-cell line [1]): 258 pg/mL
Concentration (T-cell line [2]): 14700 pg/mL

C[C@H](O)[C@H]1OC(n2cc(C(=N)NO)c3c(O)ncnc32)[C@H](O)[C@@H]1O (single isomer, unassigned; (+))
Concentration (T-cell line [1]): 162 pg/mL
Concentration (T-cell line [2]): 11400 pg/mL

C[C@H](O)[C@H]1OC(n2cc(C#N)c3c(O)ncnc32)[C@H](O)[C@@H]1O (single isomer, unassigned; (+))
Concentration (T-cell line [5]): 146 pg/mL
Concentration (T-cell line [8]): 10900 pg/mL

C[C@@H](O)[C@H]1OC(n2cc(C#N)c3c(O)ncnc32)[C@H](O)[C@@H]1O (stereo not given in full)
Concentration (T-cell line [5]): 160 pg/mL
Concentration (T-cell line [8]): 13300 pg/mL

NCc1cn([C@@H]2O[C@H](CO)[C@@H](O)[C@H]2O)c2nc[nH]c(=O)c12
Concentration (T-cell line [5]): 125 pg/mL
Concentration (T-cell line [8]): 9340 pg/mL

C[C@@H](O)[C@H]1OC(n2cc(C(=N)NO)c3c(O)ncnc32)[C@H](O)[C@@H]1O (stereo not given in full)
Concentration (T-cell line [1]): 186 pg/mL
Concentration (T-cell line [2]): 12300 pg/mL

C[C@H]1OC(n2cc(C(=N)NO)c3c(O)ncnc32)[C@H](O)[C@@H]1O (single isomer, unassigned; (+))
Concentration (T-cell line [1]): 149 pg/mL
Concentration (T-cell line [2]): 10600 pg/mL
